Laboratory results published in patent publication US20250059171A1 (Hoffmann-La Roche Inc., priority 2021, published 2025).

What was measured:
[1] = molecular target: SARS-CoV 3CLpro (Severe acute respiratory syndrome coronavirus, UniProt P0C6X7); assay: biochemical
[2] = molecular target: SARS-CoV-2 3CLpro (Severe acute respiratory syndrome coronavirus 2, UniProt P0DTD1); assay: biochemical
[3] = molecular target: HCoV-229E 3CLpro (Human coronavirus 229E, UniProt P0C6X1); assay: HCoV-229E 3CLpro inhibition assay (FRET); format: biochemical
[4] = molecular target: MERS-CoV 3CLpro (Middle East respiratory syndrome-related coronavirus, UniProt K9N7C7); assay: biochemical
Chain of MERS-CoV 3CLpro (K9N7C7 3248-3553): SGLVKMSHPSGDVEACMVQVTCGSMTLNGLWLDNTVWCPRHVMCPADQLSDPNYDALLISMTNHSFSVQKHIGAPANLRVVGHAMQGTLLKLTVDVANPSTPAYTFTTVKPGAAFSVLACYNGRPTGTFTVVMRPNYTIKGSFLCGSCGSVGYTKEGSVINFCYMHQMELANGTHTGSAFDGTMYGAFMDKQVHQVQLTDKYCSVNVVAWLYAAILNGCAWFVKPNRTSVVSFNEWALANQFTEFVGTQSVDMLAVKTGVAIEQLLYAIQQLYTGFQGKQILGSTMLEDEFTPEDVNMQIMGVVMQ

Chain of HCoV-229E 3CLpro (P0C6X1 2966-3267): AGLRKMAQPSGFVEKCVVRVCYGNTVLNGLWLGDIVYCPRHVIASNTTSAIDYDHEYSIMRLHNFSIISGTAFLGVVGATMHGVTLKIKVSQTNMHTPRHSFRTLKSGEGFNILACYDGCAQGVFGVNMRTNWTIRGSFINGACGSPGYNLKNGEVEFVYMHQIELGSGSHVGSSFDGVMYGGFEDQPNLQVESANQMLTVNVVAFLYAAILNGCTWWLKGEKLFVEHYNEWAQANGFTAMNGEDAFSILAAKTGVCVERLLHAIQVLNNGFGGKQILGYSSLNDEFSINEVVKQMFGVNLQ

| Compound | IC50 [1] [nM] | IC50 [2] [nM] | IC50 [3] [nM] | IC50 [4] [nM] |
| --- | --- | --- | --- | --- |
| CCC(C)(C)[C@H](NC(=O)C1CC1)C(=O)N1C[C@H]2[C@@H]([C@H]1C(=O)NN(C[C@@H]1CCCNC1=O)C(=O)[C@H](F)Cl)C2(C)C [Example 169a, N-[(1S)-1-[(1R,2S,5S)-2-[[[(2R)-2-chloro-2-fluoro-acetyl]-[[(3S)-2-oxo-3-piperidyl]methyl]amino]carbamoyl]-6,6-dimethyl-3-azabicyclo[3.1.0]hexane-3-carbonyl]-2,2-dimethyl-butyl]cyclopropanecarboxamide] | 20 | 9 | 56 | 118 |
| CC[C@H](C)[C@H](NC(=O)C1(F)CC1)C(=O)N1C[C@@H]2CCC[C@@H]2[C@H]1C(=O)NN(C[C@@H]1CCCNC1=O)C(=O)[C@H](F)Cl [Example 170a, N-[(1S,2S)-1-[(3S,3aS,6aR)-3-[[[(2R)-2-chloro-2-fluoro-acetyl]-[[(3S)-2-oxo-3-piperidyl]methyl]amino]carbamoyl]-3,3a,4,5,6,6a-hexahydro-1H-cyclopenta[c]pyrrole-2-carbonyl]-2-methyl-butyl]-1-fluoro-cyclopropanecarboxamide] | 25 | 16 | 107 | 276 |
| CCC(CC)[C@H](NC(=O)C1CC1)C(=O)N1C[C@@H]2CCC[C@@H]2[C@H]1C(=O)NN(C[C@@H]1CCCNC1=O)C(=O)[C@H](F)Cl [Example 171a, N-[(1S)-1-[(3S,3aS,6aR)-3-[[[(2R)-2-chloro-2-fluoro-acetyl]-[[(3S)-2-oxo-3-piperidyl]methyl]amino]carbamoyl]-3,3a,4,5,6,6a-hexahydro-1H-cyclopenta[c]pyrrole-2-carbonyl]-2-ethyl-butyl]cyclopropanecarboxamide] | 17 | 8 | 94 | 130 |
| CCC(CC)[C@H](NC(=O)C1CC1)C(=O)N1C[C@H]2[C@@H]([C@H]1C(=O)NN(C[C@@H]1CCCNC1=O)C(=O)[C@H](F)Cl)C2(C)C [Example 172, N-[(1S)-1-[(1R,2S,5S)-2-[[[(2R)-2-chloro-2-fluoro-acetyl]-[[(3S)-2-oxo-3-piperidyl]methyl]amino]carbamoyl]-6,6-dimethyl-3-azabicyclo[3.1.0]hexane-3-carbonyl]-2-ethyl-butyl]cyclopropanecarboxamide] | 26 | 17 | 71 | 187 |
| CCC(CC)[C@H](NC(=O)C(F)F)C(=O)N1C[C@H]2[C@@H]([C@H]1C(=O)NN(C[C@@H]1CCCNC1=O)C(=O)[C@H](F)Cl)C2(C)C [Example 173, N-[(1S)-1-[(1R,2S,5S)-2-[[[(2R)-2-chloro-2-fluoro-acetyl]-[[(3S)-2-oxo-3-piperidyl]methyl]amino]carbamoyl]-6,6-dimethyl-3-azabicyclo[3.1.0]hexane-3-carbonyl]-2-ethyl-butyl]-2,2-difluoro-acetamide] | 18 | 13 | 27 | 175 |
| CCC(CC)[C@H](NC(=O)C(F)F)C(=O)N1C[C@@H]2CCC[C@@H]2[C@H]1C(=O)NN(C[C@@H]1CCCNC1=O)C(=O)[C@H](F)Cl [Example 174, N-[(1S)-1-[(3S,3aS,6aR)-3-[[[(2R)-2-chloro-2-fluoro-acetyl]-[[(3S)-2-oxo-3-piperidyl]methyl]amino]carbamoyl]-3,3a,4,5,6,6a-hexahydro-1H-cyclopenta[c]pyrrole-2-carbonyl]-2-ethyl-butyl]-2,2-difluoro-acetamide] | 12 | 10 | 29 | 123 |
| CCC(C)(C)[C@H](NC(=O)C(F)F)C(=O)N1C[C@@H]2CCC[C@@H]2[C@H]1C(=O)NN(C[C@@H]1CCCNC1=O)C(=O)[C@H](F)Cl [Example 175, N-[(1S)-1-[(3S,3aS,6aR)-3-[[[(2R)-2-chloro-2-fluoro-acetyl]-[[(3S)-2-oxo-3-piperidyl]methyl]amino]carbamoyl]-3,3a,4,5,6,6a-hexahydro-1H-cyclopenta[c]pyrrole-2-carbonyl]-2,2-dimethyl-butyl]-2,2-difluoro-acetamide] | 15 | 10 | 37 | 105 |
| CC[C@H](C)[C@H](NC(=O)C(F)F)C(=O)N1C[C@H]2[C@@H]([C@H]1C(=O)NN(C[C@@H]1CCCNC1=O)C(=O)[C@H](F)Cl)C2(C)C [Example 176, N-[(1S,2S)-1-[(1R,2S,5S)-2-[[[(2R)-2-chloro-2-fluoro-acetyl]-[[(3S)-2-oxo-3-piperidyl]methyl]amino]carbamoyl]-6,6-dimethyl-3-azabicyclo[3.1.0]hexane-3-carbonyl]-2-methyl-butyl]-2,2-difluoro-acetamide] | 16 | 11 | 28 | 96 |
| CC1(C)[C@@H]2[C@@H](C(=O)NN(C[C@@H]3CCNC3=O)C(=O)[C@H](F)Cl)N(C(=O)c3cc(C(F)(F)F)cc(C(F)(F)F)c3)C[C@@H]21 [Example 177, (1R,2S,5S)-3-[3,5-bis(trifluoromethyl)benzoyl]-N′-[(2R)-2-chloro-2-fluoro-acetyl]-6,6-dimethyl-N′—[[(3S)-2-oxopyrrolidin-3-yl]methyl]-3-azabicyclo[3.1.0]hexane-2-carbohydrazide] | 232 | 147 | 138 | 278 |
| CC1(C)[C@@H]2[C@@H](C(=O)NN(C[C@@H]3CCNC3=O)C(=O)[C@H](F)Cl)N(C(=O)Cc3cc(C(F)(F)F)cc(C(F)(F)F)c3)C[C@@H]21 [Example 178, (1R,2S,5S)-3-[2-[3,5-bis(trifluoromethyl)phenyl]acetyl]-N′-[(2R)-2-chloro-2-fluoro-acetyl]-6,6-dimethyl-N′—[[(3S)-2-oxopyrrolidin-3-yl]methyl]-3-azabicyclo[3.1.0]hexane-2-carbohydrazide] | 259 | 148 | 65 | 264 |
| CC1(C)[C@@H]2[C@@H](C(=O)NN(C[C@@H]3CCNC3=O)C(=O)[C@H](F)Cl)N(C(=O)c3cc(F)cc(C(F)(F)F)c3)C[C@@H]21 [Example 179, (1R,2S,5S)—N′-[(2R)-2-chloro-2-fluoro-acetyl]-3-[3-fluoro-5-(trifluoromethyl)benzoyl]-6,6-dimethyl-N′—[[(3S)-2-oxopyrrolidin-3-yl]methyl]-3-azabicyclo[3.1.0]hexane-2-carbohydrazide] | 222 | 201 | 93 | 315 |
| CC1(C)[C@@H]2[C@@H](C(=O)NN(C[C@@H]3CCNC3=O)C(=O)[C@H](F)Cl)N(C(=O)/C=C/c3cc(C(F)(F)F)cc(C(F)(F)F)c3)C[C@@H]21 [Example 180, (1R,2S,5S)-3-[(E)-3-[3,5-bis(trifluoromethyl)phenyl]prop-2-enoyl]-N′-[(2R)-2-chloro-2-fluoro-acetyl]-6,6-dimethyl-N′—[[(3S)-2-oxopyrrolidin-3-yl]methyl]-3-azabicyclo[3.1.0]hexane-2-carbohydrazide] | 786 | 491 | 241 | 657 |
| CC1(C)[C@@H]2[C@@H](C(=O)NN(C[C@@H]3CCNC3=O)C(=O)[C@H](F)Cl)N(C(=O)/C=C/c3cc(F)cc(F)c3)C[C@@H]21 [Example 181, (1R,2S,5S)—N′-[(2R)-2-chloro-2-fluoro-acetyl]-3-[(E)-3-(3,5-difluorophenyl)prop-2-enoyl]-6,6-dimethyl-N′—[[(3S)-2-oxopyrrolidin-3-yl]methyl]-3-azabicyclo[3.1.0]hexane-2-carbohydrazide] | 252 | 208 | 48 | 363 |
| CC(C)(C)[C@H](Nc1cc(F)ncn1)C(=O)N1C[C@@H]2CCC[C@@H]2[C@H]1C(=O)NN(C[C@@H]1CCNC1=O)C(=O)[C@H](F)Cl [Example 182] | 12 | 11 | 37 | 89 |
| CC(C)(C)[C@H](Nc1ncncc1F)C(=O)N1C[C@@H]2CCC[C@@H]2[C@H]1C(=O)NN(C[C@@H]1CCNC1=O)C(=O)[C@H](F)Cl [Example 183] | 16 | 11 | 59 | 174 |
| CC(C)(C)[C@H](Nc1ccccn1)C(=O)N1C[C@@H]2CCC[C@@H]2[C@H]1C(=O)NN(C[C@@H]1CCNC1=O)C(=O)[C@H](F)Cl [Example 184] | 41 | 16 | 86 | 275 |
| CC[C@H](C)[C@H](NC(=O)[C@H](F)Cl)C(=O)N1C[C@H]2[C@@H]([C@H]1C(=O)NN(C[C@@H]1CCNC1=O)C(=O)[C@H](F)Cl)C2(C)C [Example 185, (2R)-2-chloro-N-[(1S,2S)-1-[(1R,2S,5S)-2-[[[(2R)-2-chloro-2-fluoro-acetyl]-[[(3S)-2-oxopyrrolidin-3-yl]methyl]amino]carbamoyl]-6,6-dimethyl-3-azabicyclo[3.1.0]hexane-3-carbonyl]-2-methyl-butyl]-2-fluoro-acetamide] | 21 | 11 | 40 | 99 |
| CC[C@H](C)[C@H](NC(=O)[C@@H](F)Cl)C(=O)N1C[C@H]2[C@@H]([C@H]1C(=O)NN(C[C@@H]1CCNC1=O)C(=O)[C@@H](F)Cl)C2(C)C [Example 186, (2S)-2-chloro-N-[(1S,2S)-1-[(1R,2S,5S)-2-[[[(2S)-2-chloro-2-fluoro-acetyl]-[[(3S)-2-oxopyrrolidin-3-yl]methyl]amino]carbamoyl]-6,6-dimethyl-3-azabicyclo[3.1.0]hexane-3-carbonyl]-2-methyl-butyl]-2-fluoro-acetamide] | 23 | 13 | 49 | 69 |
